According to patent publication US9133206B2, “Benzodiazepine and pyridodiazepine derivatives” (AbbVie Inc., priority 2010, dated 2015):

Tested on: SK-N-SH human neuroblastoma cells
Assay: Serum Deprivation/JC-1 Mitochondrial Membrane Potential (MMP) Assay
Assay type: cell-based
Details: Homo sapiens; for EC50 / Emax: SK-N-SH; for EC50: 18 h, serum deprivation ~18 hours, JC-1 ratio normalized to peak value for 10 μM dimebolin, single curve fit to mean data of n=2-3; for Emax: percent maximal intensity in JC-1 ratio normalized to peak value for 10 μM dimebolin, read-out: JC-1 max %; for Emax / activation at 3 µM: serum deprivation; for activation at 3 µM: single dose 3 μM, JC-1 ratio normalized to peak value for 10 μM dimebolin (n=2-4), read-out: JC-1 max % (@ 3 μM)
How it was run: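 SK-N-SH cells serum-deprived ~18 h with compound, then stained with JC-1 for 40 min at 37 °C; red (560/595 nm) to green (485/535 nm) ratio reports membrane potential. Response normalized to peak from 10 μM dimebolin; EC50 from fit to mean of n=2–3, or single-dose 3 μM; DMSO ≤1%.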

Structure (SMILES)	EC50	Emax	activation at 3 µM
FC(F)(F)c1ccc(CN2Cc3ccccc3N3CCN(Cc4ccccc4)CC3C2)cc1 (stereo not drawn) [Example 21, 3-benzyl-6-[4-(trifluoromethyl)benzyl]-1,2,3,4,4a,5,6,7-octahydropyrazino[1,2-a][1,4]benzodiazepine]	6.11 µM	168%	
Fc1ccc(CN2CCN3c4ccccc4CNCC3C2)cc1 (stereo not drawn) [Example 40, 3-(4-fluorobenzyl)-1,2,3,4,4a,5,6,7-octahydropyrazino[1,2-a][1,4]benzodiazepine]	11.8 µM	224%	
O=C1NCc2ccccc2N2CCN(Cc3ccc(F)cc3)CC12 (stereo not drawn) [Example 38, 3-(4-fluorobenzyl)-2,3,4,4a,6,7-hexahydropyrazino[1,2-a][1,4]benzodiazepin-5(1H)-one]	> 30 µM	27%	
Cc1ccc(CN2Cc3ccccc3N3CCN(Cc4ccccc4)CC3C2)s1 (stereo not drawn) [Example 122, 3-benzyl-6-[(5-methyl-2-thienyl)methyl]-1,2,3,4,4a,5,6,7-octahydropyrazino[1,2-a][1,4]benzodiazepine]	3.4 µM	133%	
O=C(CC(F)(F)F)N1Cc2ccccc2N2CCN(Cc3ccccc3)CC2C1 (stereo not drawn) [Example 117, 1-(3-benzyl-1,2,3,4,4a,5-hexahydropyrazino[1,2-a][1,4]benzodiazepin-6(7H)-yl)-3,3,3-trifluoropropan-1-one]			70%
O=C(c1ccc[nH]1)N1Cc2ccccc2N2CCN(Cc3ccccc3)CC2C1 (stereo not drawn) [Example 93, (3-benzyl-1,2,3,4,4a,5-hexahydropyrazino[1,2-a][1,4]benzodiazepin-6(7H)-yl)(1H-pyrrol-2-yl)methanone]	1.56 µM	185%	
O=C(c1cn[nH]c1)N1Cc2ccccc2N2CCN(Cc3ccccc3)CC2C1 (stereo not drawn) [Example 85, (3-benzyl-1,2,3,4,4a,5-hexahydropyrazino[1,2-a][1,4]benzodiazepin-6(7H)-yl)(1H-pyrazol-4-yl)methanone]			80%
Brc1ccc(CN2CCC3CN(Cc4ccccc4)CCN3c3ccccc32)cc1 (stereo not drawn) [Example 47, 3-benzyl-7-(4-bromobenzyl)-1,2,3,4,4a,5,6,7-octahydropyrazino[1,2-a][1,5]benzodiazepine]	2.78 µM	273%	
COc1ccccc1CN1Cc2ccccc2N2CCN(Cc3ccccc3)CC2C1 (stereo not drawn) [Example 133, 3-benzyl-6-(2-methoxybenzyl)-1,2,3,4,4a,5,6,7-octahydropyrazino[1,2-a][1,4]benzodiazepine]	3.64 µM	163%	
COc1ccc(CN2Cc3ccccc3N3CCN(Cc4ccccc4)CC3C2)cc1 (stereo not drawn) [Example 134, 3-benzyl-6-(4-methoxybenzyl)-1,2,3,4,4a,5,6,7-octahydropyrazino[1,2-a][1,4]benzodiazepine]	3.53 µM	163%	
CN1Cc2ccccc2N2CCN(Cc3ccccc3)CC2C1 (stereo not drawn) [Example 8, 3-benzyl-6-methyl-1,2,3,4,4a,5,6,7-octahydropyrazino[1,2-a][1,4]benzodiazepine]	3.03 µM	204%	
c1ccc(CN2CCN3c4ccccc4CN(Cc4cncc5ccccc45)CC3C2)cc1 (stereo not drawn) [Example 37, 3-benzyl-6-(isoquinolin-4-ylmethyl)-1,2,3,4,4a,5,6,7-octahydropyrazino[1,2-a][1,4]benzodiazepine]	1.21 µM	172%	
O=C1C2CNCCN2c2ccccc2CN1CC1CC1 (stereo not drawn) [Example 172, 6-(cyclopropylmethyl)-2,3,4,4a,6,7-hexahydropyrazino[1,2-a][1,4]benzodiazepin-5(1H)-one]			0%
O=C(c1ccc(Br)cc1)N1Cc2ccccc2N2CCN(Cc3ccccc3)CC2C1 (stereo not drawn) [Example 31, (3-benzyl-1,2,3,4,4a,5-hexahydropyrazino[1,2-a][1,4]benzodiazepin-6(7H)-yl)(4-bromophenyl)methanone]	1.97 µM	218%	
O=C(CN1CCOCC1)N1Cc2ccccc2N2CCN(Cc3ccccc3)CC2C1 (stereo not drawn) [Example 87, 1-(3-benzyl-1,2,3,4,4a,5-hexahydropyrazino[1,2-a][1,4]benzodiazepin-6(7H)-yl)-2-(morpholin-4-yl)ethanone]			83%
CN1CCC2CN(Cc3ccccc3)CCN2c2ccccc21 (stereo not drawn) [Example 49, 3-benzyl-7-methyl-1,2,3,4,4a,5,6,7-octahydropyrazino[1,2-a][1,5]benzodiazepine]	10.4 µM	128%	
O=C(N1CCOCC1)N1Cc2ccccc2N2CCN(Cc3ccc(F)cc3)CC2C1 (stereo not drawn) [Example 76, [3-(4-fluorobenzyl)-1,2,3,4,4a,5-hexahydropyrazino[1,2-a][1,4]benzodiazepin-6(7H)-yl](morpholin-4-yl)methanone]	7.06 µM	127%	

Structure (SMILES)	EC50	Emax	activation at 3 µM
Cc1ccc(CN2Cc3ccccc3N3CCN(Cc4ccccc4)CC3C2)cc1 (stereo not drawn) [Example 137, 3-benzyl-6-(4-methylbenzyl)-1,2,3,4,4a,5,6,7-octahydropyrazino[1,2-a][1,4]benzodiazepine]	3.3 µM	143%	
c1ccc(CN2CCN3c4ccccc4CN(Cc4ccc5ccccc5n4)CC3C2)cc1 (stereo not drawn) [Example 126, 3-benzyl-6-(quinolin-2-ylmethyl)-1,2,3,4,4a,5,6,7-octahydropyrazino[1,2-a][1,4]benzodiazepine]	1.89 µM	150%	
Clc1ccc(CN2Cc3ccccc3N3CCN(Cc4ccccc4)CC3C2)cn1 (stereo not drawn) [Example 34, 3-benzyl-6-[(6-chloropyridin-3-yl)methyl]-1,2,3,4,4a,5,6,7-octahydropyrazino[1,2-a][1,4]benzodiazepine]	2.94 µM	213%	
O=C([C@@H]1C[C@H]1c1ccccc1)N1Cc2ccccc2N2CCN(Cc3ccccc3)CC2C1 (relative stereo) [Example 15, (3-benzyl-1,2,3,4,4a,5-hexahydropyrazino[1,2-a][1,4]benzodiazepin-6(7H)-yl)[trans-2-phenylcyclopropyl]methanone]	2.19 µM	225%	
O=C(c1ccncc1)N1Cc2ccccc2N2CCN(Cc3ccccc3)CC2C1 (stereo not drawn) [Example 107, (3-benzyl-1,2,3,4,4a,5-hexahydropyrazino[1,2-a][1,4]benzodiazepin-6(7H)-yl)(pyridin-4-yl)methanone]	5.66 µM	192%	
CN1CCN2c3ccccc3CN(C3CCN(C(=O)c4ccccc4)CC3)CC2C1 (stereo not drawn) [Example 173, [4-(3-methyl-1,2,3,4,4a,5-hexahydropyrazino[1,2-a][1,4]benzodiazepin-6(7H)-yl)piperidin-1-yl](phenyl)methanone]			68%
O=C(NCc1ccccn1)N1Cc2ccccc2N2CCN(Cc3ccccc3)CC2C1 (stereo not drawn) [Example 168, 3-benzyl-N-(pyridin-2-ylmethyl)-1,2,3,4,4a,5-hexahydropyrazino[1,2-a][1,4]benzodiazepine-6(7H)-carboxamide]			259%
Fc1ccc(CN2CCN3c4ncccc4N(CC4CNC4)CCC3C2)cc1 (stereo not drawn) [Example 69, 5-(azetidin-3-ylmethyl)-9-(4-fluorobenzyl)-5,6,7,7a,8,9,10,11-octahydropyrazino[1,2-d]pyrido[3,2-b][1,4]diazepine]	10.3 µM	154%	
O=C(Cc1ccc(Cl)cc1)N1CCC2CN(Cc3ccccc3)CCN2c2ccccc21 (stereo not drawn) [Example 27, 1-(3-benzyl-2,3,4,4a,5,6-hexahydropyrazino[1,2-a][1,5]benzodiazepin-7(1H)-yl)-2-(4-chlorophenyl)ethanone]	4.44 µM	149%	
CCCC(=O)N1Cc2ccccc2N2CCN(Cc3ccccc3)CC2C1 (stereo not drawn) [Example 108, 1-(3-benzyl-1,2,3,4,4a,5-hexahydropyrazino[1,2-a][1,4]benzodiazepin-6(7H)-yl)butan-1-one]	3.12 µM	162%	
CCN(CC)C(=O)N1Cc2ccccc2N2CCN(Cc3ccccc3)CC2C1 (stereo not drawn) [Example 158, 3-benzyl-N,N-diethyl-1,2,3,4,4a,5-hexahydropyrazino[1,2-a][1,4]benzodiazepine-6(7H)-carboxamide]	1.02 µM	181%	
CCCN(C)C(=O)N1Cc2ccccc2N2CCN(Cc3ccccc3)CC2C1 (stereo not drawn) [Example 170, 3-benzyl-N-methyl-N-propyl-1,2,3,4,4a,5-hexahydropyrazino[1,2-a][1,4]benzodiazepine-6(7H)-carboxamide]			273%
CC1(C)C(CN2CCC3CN(Cc4ccccc4)CCN3c3ncccc32)C1(C)C (stereo not drawn) [Example 59, 9-benzyl-5-[(2,2,3,3-tetramethylcyclopropyl)methyl]-5,6,7,7a,8,9,10,11-octahydropyrazino[1,2-d]pyrido[3,2-b][1,4]diazepine]	3.4 µM	306%	
Clc1ccccc1CN1Cc2ccccc2N2CCN(Cc3ccccc3)CC2C1 (stereo not drawn) [Example 139, 3-benzyl-6-(2-chlorobenzyl)-1,2,3,4,4a,5,6,7-octahydropyrazino[1,2-a][1,4]benzodiazepine]	3.18 µM	145%	
O=C(N1CCOCC1)N1Cc2ccccc2N2CCN(Cc3ccccc3)CC2C1 (stereo not drawn) [Example 14, (3-benzyl-1,2,3,4,4a,5-hexahydropyrazino[1,2-a][1,4]benzodiazepin-6(7H)-yl)(morpholin-4-yl)methanone]	0.754 µM	203%	
O=C(c1cncs1)N1Cc2ccccc2N2CCN(Cc3ccccc3)CC2C1 (stereo not drawn) [Example 89, (3-benzyl-1,2,3,4,4a,5-hexahydropyrazino[1,2-a][1,4]benzodiazepin-6(7H)-yl)(1,3-thiazol-5-yl)methanone]	1.83 µM	140%	
O=C(NCc1cccnc1)N1Cc2ccccc2N2CCN(Cc3ccccc3)CC2C1 (stereo not drawn) [Example 163, 3-benzyl-N-(pyridin-3-ylmethyl)-1,2,3,4,4a,5-hexahydropyrazino[1,2-a][1,4]benzodiazepine-6(7H)-carboxamide]			183%
